Data on two compounds can be found in US9963467B2, “Boronic acid derivatives and therapeutic uses thereof” (Rempex Pharmaceuticals, Inc., priority 2014, dated 2018).

One data set concerns the target KPC-2 (Klebsiella pneumoniae, UniProt Q9F663). In words: Ki, nitrocefin cleavage by purified enzyme, KPC-2. In kind it is biochemical. The following applies: nitrocefin reporter substrate; read-out: Ki (KPC-2, NCF). The method, boiled down: (§1)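 Readout: nitrocefin hydrolysis, A490 recorded every 10 sec over 10 min. Enzyme and inhibitor (varied concentrations) preincubated 10 min, RT, in reaction buffer before substrate addition.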

In the next data set the target is CTX-M-14 (Escherichia coli, UniProt Q9L5C7). In words: Ki, nitrocefin cleavage by purified enzyme, CTX-M-14. In kind it is biochemical. The following applies: nitrocefin reporter substrate; read-out: Ki (CTX-M-14, NCF). The method, boiled down: as §1
CTX-M-14, sequence (Q9L5C7 29-291): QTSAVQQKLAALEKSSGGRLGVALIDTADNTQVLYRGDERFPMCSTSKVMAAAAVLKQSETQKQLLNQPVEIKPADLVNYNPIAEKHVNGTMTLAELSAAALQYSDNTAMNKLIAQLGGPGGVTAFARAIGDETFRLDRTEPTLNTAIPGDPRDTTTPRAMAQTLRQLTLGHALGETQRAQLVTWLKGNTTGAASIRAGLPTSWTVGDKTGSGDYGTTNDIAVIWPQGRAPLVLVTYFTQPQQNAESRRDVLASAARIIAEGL
In a further data set the test system is KP1086 (OXA-48). As to the kind of experiment: Biapenem potentiation (MPC@1), KP1086. The following applies: BLI with biapenem at 1 μg/mL.
Data set [1] concerns KP1009 (CTX-M-15). In words: organism not typed. Type of data set: cell-based.
The nature of data set [2]: Monomer content of pH adjusted aqueous solutions (LC-UV). The following applies: 1 mg/mL aqueous salt solution, pH adjusted to 7.6 to 8, LC-UV. In kind it is physicochemical. The method, boiled down:
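Aqueous solutions at 1.00, 10.0 or 100 mg/mL (active fraction) brought to pH 7.6–8 with acid or base, compound fully dissolved. Injected within half an hour of preparation onto C18 reversed-phase LC (0.1% TFA water / 0.085% TFA methanol gradient); UV detection at 220, 254 and 300 nm.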

Data set [3] concerns ec302 (TEM-10). As to the kind of experiment: Tigemonam potentiation (MPC@4), ec302. In kind it is cell-based.
In data set [4] the test system is ECL1002. In words: Aztreonam potentiation (MPC@4), ECL1002. In kind it is cell-based. The following applies: BLI with aztreonam at 4 μg/mL.
Data set [5] has as its system EC1010 (CMY-6). In words: organism not typed. In kind it is cell-based.
Data set [6] relates to ECL1002. In words: Tigemonam potentiation (MPC@4), ECL1002. In kind it is cell-based. The following applies: BLI with tigemonam at 4 μg/mL.
Data set [7] concerns ec302 (TEM-10). As to the kind of experiment: Aztreonam potentiation (MPC@4), ec302. In kind it is cell-based. The following applies: BLI with aztreonam at 4 μg/mL.
For data set [8], the system named is EC1010 (CMY-6). As to the kind of experiment: Tigemonam potentiation (MPC@4), EC1010. In kind it is cell-based. The following applies: BLI with tigemonam at 4 μg/mL.
For the next data set, the target named is SHV-12 (Klebsiella pneumoniae, UniProt P0AD64, E235K/G234S/L31Q). As to the kind of experiment: Ki, nitrocefin cleavage by purified enzyme, SHV-12. Type of data set: biochemical. The following applies: nitrocefin reporter substrate; read-out: Ki (SHV-12, NCF). The method, boiled down: as §1
SHV-12, sequence (P0AD64 22-286 L31Q/G234S/E235K): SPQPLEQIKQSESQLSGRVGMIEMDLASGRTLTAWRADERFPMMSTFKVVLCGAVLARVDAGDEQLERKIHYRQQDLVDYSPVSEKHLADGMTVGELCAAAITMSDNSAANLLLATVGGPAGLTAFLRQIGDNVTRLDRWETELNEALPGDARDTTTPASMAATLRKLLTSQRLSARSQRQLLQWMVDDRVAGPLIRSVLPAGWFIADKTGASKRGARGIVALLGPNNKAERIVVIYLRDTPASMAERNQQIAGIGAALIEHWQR
For data set [9], the system named is KP1005 (CTX-M-14). In words: Aztreonam potentiation (MPC@4), KP1005. The following applies: BLI with aztreonam at 4 μg/mL. Type of data set: cell-based.
The target in another data set is OXA-48 (Klebsiella pneumoniae, UniProt Q6XEC0). As to the kind of experiment: Ki, nitrocefin cleavage by purified enzyme, OXA-48. Type of data set: biochemical. The following applies: nitrocefin reporter substrate; read-out: Ki (OXA-48, NCF). The method, boiled down: as §1
OXA-48, sequence (Q6XEC0 23-265, looked up, species assumed): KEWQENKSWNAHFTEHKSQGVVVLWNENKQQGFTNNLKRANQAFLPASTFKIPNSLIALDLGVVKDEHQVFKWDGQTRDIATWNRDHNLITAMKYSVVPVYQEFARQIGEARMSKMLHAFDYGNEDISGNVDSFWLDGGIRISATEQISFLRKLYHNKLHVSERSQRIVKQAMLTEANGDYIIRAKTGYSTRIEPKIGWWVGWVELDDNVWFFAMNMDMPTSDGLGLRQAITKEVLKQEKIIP
For data set [10], the system named is KP1009 (CTX-M-15). In words: Tigemonam potentiation (MPC@4), KP1009. The following applies: BLI with tigemonam at 4 μg/mL. Type of data set: cell-based.
Data set [11] concerns KP1004 (KPC-2). As to the kind of experiment: Biapenem potentiation (MPC@1), KP1004. The following applies: BLI with biapenem at 1 μg/mL.
The target in another data set is Pa AmpC (Pseudomonas aeruginosa, UniProt P24735). In words: Ki, nitrocefin cleavage by purified enzyme, Pa AmpC. Type of data set: biochemical. The following applies: nitrocefin reporter substrate; read-out: Ki (Pa AmpC, NCF). The method, boiled down:
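Enzyme–inhibitor mixtures, spanning various inhibitor concentrations, were held 10 min at room temperature in reaction buffer prior to nitrocefin addition. Spectrophotometric monitoring of substrate cleavage at 490 nm then ran 10 min at 10-sec intervals to yield Ki.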

The target in the next data set is P99 (Enterobacter cloacae, UniProt P05364). As to the kind of experiment: Ki, nitrocefin cleavage by purified enzyme, P99. In kind it is biochemical. The following applies: nitrocefin reporter substrate; read-out: Ki (P99, NCF). The method, boiled down:
as §1

Another data set relates to KP1010 (SHV-12). In words: Tigemonam potentiation (MPC@4), KP1010. In kind it is cell-based.
The test system of data set [12] is KP1004 (KPC-2). As to the kind of experiment: Aztreonam potentiation (MPC@4), KP1004. Type of data set: cell-based. The following applies: BLI with aztreonam at 4 μg/mL.
For the next data set, the system named is ec308 (SHV-5). In words: Tigemonam potentiation (MPC@4), ec308. In kind it is cell-based.
The subject of data set [13] is KP1005 (CTX-M-14). As to the kind of experiment: Tigemonam potentiation (MPC@4), KP1005. In kind it is cell-based. The following applies: BLI with tigemonam at 4 μg/mL.

Each structure is given as a SMILES string. pKi: −log10 of the molar value.

P99, sequence (P05364 21-381): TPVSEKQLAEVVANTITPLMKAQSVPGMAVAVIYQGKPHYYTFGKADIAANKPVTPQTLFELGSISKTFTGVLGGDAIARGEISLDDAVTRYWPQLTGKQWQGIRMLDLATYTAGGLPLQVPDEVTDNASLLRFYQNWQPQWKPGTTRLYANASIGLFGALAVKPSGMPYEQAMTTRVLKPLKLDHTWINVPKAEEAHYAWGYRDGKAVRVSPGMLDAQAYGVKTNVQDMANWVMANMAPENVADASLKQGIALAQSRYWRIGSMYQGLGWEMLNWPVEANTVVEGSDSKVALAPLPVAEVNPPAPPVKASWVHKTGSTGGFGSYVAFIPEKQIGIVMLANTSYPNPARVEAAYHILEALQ
Pa AmpC, sequence (P24735 27-397): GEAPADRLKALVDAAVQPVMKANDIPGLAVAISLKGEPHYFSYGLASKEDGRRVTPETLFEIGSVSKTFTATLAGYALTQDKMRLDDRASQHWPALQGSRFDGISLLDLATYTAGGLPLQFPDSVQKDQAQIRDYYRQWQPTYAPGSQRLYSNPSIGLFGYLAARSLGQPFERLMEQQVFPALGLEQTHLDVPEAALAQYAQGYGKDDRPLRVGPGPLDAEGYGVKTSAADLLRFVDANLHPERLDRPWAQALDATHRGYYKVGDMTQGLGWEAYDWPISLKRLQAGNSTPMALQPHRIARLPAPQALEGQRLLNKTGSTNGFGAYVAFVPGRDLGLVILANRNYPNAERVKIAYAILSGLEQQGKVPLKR
KPC-2, sequence (Q9F663 25-293, looked up, species assumed): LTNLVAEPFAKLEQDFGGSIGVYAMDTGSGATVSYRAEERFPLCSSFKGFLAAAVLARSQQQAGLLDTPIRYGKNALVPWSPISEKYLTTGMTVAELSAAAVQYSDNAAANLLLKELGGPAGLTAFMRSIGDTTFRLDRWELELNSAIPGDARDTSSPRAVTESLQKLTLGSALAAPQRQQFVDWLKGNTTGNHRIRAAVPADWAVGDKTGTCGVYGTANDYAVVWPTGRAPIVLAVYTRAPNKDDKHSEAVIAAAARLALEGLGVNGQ

As usually defined, the pKi is −log10 of the Ki, conventionally taken in molar units. Turning to `CSCC(=O)N[C@@H]1Cc2ccc(F)c(C(=O)O)c2OB1O` [Compound 31, (S)-7-fluoro-2-hydroxy-3-(2-(methylthio)acetamido)-3,4-dihydro-2H-benzo[e][1,2]oxaborinine-8-carboxylic acid], the pKi at KPC-2 is < 8.00; on CTX-M-14, 8.00 to 9.00; on SHV-12, > 9.00; on OXA-48 it was 8.00 to 9.00; at Pa AmpC, < 8.00; at P99, < 8.00. Also, the “BPM MPC1 OXA-48 KP1086” value in the data set on KP1086 (OXA-48) is “Z (MIC of greater than 10 μg/mL)”. The “AZT MPC4 CTX-M-15 KP1009” value with KP1009 (CTX-M-15) [1] was “Y (key: X: MIC of less than 1 ng/mL; Y: MIC of 1 μg/mL to 10 μg/mL; Z: MIC of greater than 10 μg/mL)”. In addition, the “% Monomer in 1 mg/mL salt solution” value in data set [2] is 99.7%. Besides, the “TIG MPC4 TEM-10 ec302” value in the data set on ec302 (TEM-10) [3] is recorded as “Z (key: X: MIC of less than 1 ng/mL; Y: MIC of 1 μg/mL to 10 μg/mL; Z: MIC of greater than 10 μg/mL)”. For the same compound, the “AZT MPC4 ECL1002” value in the data set with ECL1002 [4] was “Y (MIC of 1 μg/mL to 10 μg/mL)”. In addition, the “AZT MPC4 CMY-6 EC1010” value with EC1010 (CMY-6) [5] is recorded as “Y (key: X: MIC of less than 1 ng/mL; Y: MIC of 1 μg/mL to 10 μg/mL; Z: MIC of greater than 10 μg/mL)”. Also, in the data set on ECL1002 [6], the “TIG MPC4 ECL1002” value was “X (MIC of less than 1 μg/mL)”. Further, in the data set on ec302 (TEM-10) [7], the “AZT MPC4 TEM-10 ec302” value is listed as “Y (MIC of 1 μg/mL to 10 μg/mL)”. For the same compound, in the data set with EC1010 (CMY-6) [8], the “TIG MPC4 CMY-6 EC1010” value is recorded as “Y (MIC of 1 μg/mL to 10 μg/mL)”. Further, the “AZT MPC4 CTX-M-14 KP1005” value in the data set with KP1005 (CTX-M-14) [9] was “Y (MIC of 1 μg/mL to 10 μg/mL)”. Moreover, the “TIG MPC4 CTX-M-15 KP1009” value with KP1009 (CTX-M-15) [10] is recorded as “Y (MIC of 1 μg/mL to 10 μg/mL)”. Besides, the “BPM MPC1 KP1004 KPC-2” value in the data set on KP1004 (KPC-2) [11] is listed as “X (MIC of less than 1 μg/mL)”. For the same compound, the “TIG MPC4 SHV-12 KP1010” value in the data set with KP1010 (SHV-12) was “X (key: X: MIC of less than 1 μg/mL; Y: MIC of 1 μg/mL to 10 μg/mL; Z: MIC of greater than 10 μg/mL)”. Further, in the data set on KP1004 (KPC-2) [12], the “AZT MPC4 KPC-2 KP1004” value was “Y (MIC of 1 μg/mL to 10 μg/mL)”. In addition, the “TIG MPC4 SHV-5 ec308” value in the data set on ec308 (SHV-5) is listed as “X (key: X: MIC of less than 1 μg/mL; Y: MIC of 1 μg/mL to 10 μg/mL; Z: MIC of greater than 10 μg/mL)”. The “TIG MPC4 CTX-M-14 KP1005” value in the data set on KP1005 (CTX-M-14) [13] is reported as “Y (MIC of 1 μg/mL to 10 μg/mL)”.

Turning to `CSCC(=O)N[C@H]1Cc2ccc(Sc3nncn3C)c(C(=O)O)c2OB1O` [Compound 35, (R)-2-hydroxy-7-(4-methyl-4H-1,2,4-triazol-3-ylthio)-3-(2-(methylthio)acetamido)-3,4-dihydro-2H-benzo[e][1,2]oxaborinine-8-carboxylic acid], the pKi at KPC-2 is < 8.00; at CTX-M-14, > 9.00; on SHV-12 it was > 9.00; on OXA-48, > 9.00; on Pa AmpC, < 8.00; at P99 it was < 8.00. The “BPM MPC1 OXA-48 KP1086” value with KP1086 (OXA-48) was “Z (MIC of greater than 10 μg/mL)”. Further, in the data set with KP1009 (CTX-M-15) [1], the “AZT MPC4 CTX-M-15 KP1009” value is “Y (key: X: MIC of less than 1 ng/mL; Y: MIC of 1 μg/mL to 10 μg/mL; Z: MIC of greater than 10 μg/mL)”. Besides, in the data set on ec302 (TEM-10) [3], the “TIG MPC4 TEM-10 ec302” value is recorded as “Y (key: X: MIC of less than 1 ng/mL; Y: MIC of 1 μg/mL to 10 μg/mL; Z: MIC of greater than 10 μg/mL)”. Moreover, the “AZT MPC4 ECL1002” value in the data set on ECL1002 [4] was “Y (MIC of 1 μg/mL to 10 μg/mL)”. In addition, the “AZT MPC4 CMY-6 EC1010” value in the data set on EC1010 (CMY-6) [5] is given as “Y (key: X: MIC of less than 1 ng/mL; Y: MIC of 1 μg/mL to 10 μg/mL; Z: MIC of greater than 10 μg/mL)”. In addition, the “TIG MPC4 ECL1002” value with ECL1002 [6] is listed as “Y (MIC of 1 μg/mL to 10 μg/mL)”. Moreover, the “AZT MPC4 TEM-10 ec302” value in the data set on ec302 (TEM-10) [7] is “Y (MIC of 1 μg/mL to 10 μg/mL)”. For the same compound, the “TIG MPC4 CMY-6 EC1010” value with EC1010 (CMY-6) [8] is “Y (MIC of 1 μg/mL to 10 μg/mL)”. Further, in the data set on KP1005 (CTX-M-14) [9], the “AZT MPC4 CTX-M-14 KP1005” value is given as “Y (MIC of 1 μg/mL to 10 μg/mL)”. Also, the “TIG MPC4 CTX-M-15 KP1009” value with KP1009 (CTX-M-15) [10] is “Y (MIC of 1 μg/mL to 10 μg/mL)”. In the data set on KP1004 (KPC-2) [11], the “BPM MPC1 KP1004 KPC-2” value was “X (MIC of less than 1 μg/mL)”. Further, the “TIG MPC4 SHV-12 KP1010” value in the data set with KP1010 (SHV-12) is reported as “X (key: X: MIC of less than 1 μg/mL; Y: MIC of 1 μg/mL to 10 μg/mL; Z: MIC of greater than 10 μg/mL)”. The “AZT MPC4 KPC-2 KP1004” value with KP1004 (KPC-2) [12] is given as “Y (MIC of 1 μg/mL to 10 μg/mL)”. Also, in the data set with ec308 (SHV-5), the “TIG MPC4 SHV-5 ec308” value is recorded as “X (key: X: MIC of less than 1 μg/mL; Y: MIC of 1 μg/mL to 10 μg/mL; Z: MIC of greater than 10 μg/mL)”. In addition, in the data set with KP1005 (CTX-M-14) [13], the “TIG MPC4 CTX-M-14 KP1005” value is “Y (MIC of 1 μg/mL to 10 μg/mL)”.
